Measurements from patent publication US11504371B2, “Quinazolines compound, preparation method therefor and application thereof” (Beijing Normal University, priority 2017, dated 2022).
Entries after “also recorded” stand apart in the source; their conditions may differ. Read-outs that look alike come from different tables or passages of the source.

How the values were obtained:
[1] = system: human hepatoma cell line (HepG2); test: MTT assay, tumor cell proliferation inhibition, HepG2; type: cell-based; conditions: 72 h, read-out: Tumor inhibition rate (IC50)
Experimental: (§1) Cell lines to be tested: human hepatoma cell line (HepG2), human lung cancer cell line (A549), human prostate cancer cell line (DU145), human breast cancer cell line (MCF-7), human neuroblastoma cell line (SH-SY5Y), human gastric mucosal cell line (Ges-1) and human embryonic lung fibroblast cell line (CCC-HPF-1) (the cells to be tested were purchased from the Cancer Hospital of Chinese Academy of Medical Sciences).
(§2) The cells in logarithmic growth phase were treated to prepare a single cell suspension, with the cell density adjusted, which was seeded in a 96-well cell culture plate. About 2×10^3 cells were contained in 100 μL per well, and cultured in a cell incubator at 37° C., 5% CO2, and saturated humidity for 24 h. The used medium was aspirated and abandoned, and then 100 μL of the target compound in different concentrations (0.1 μM-100 μM) were added for drug treatment. Five duplicate wells were prepared for each concentration. The background blank well, negative control well and positive control well were also prepared. All the wells were placed in a cell culture incubator at 37° C., 5% CO2, saturated humidity for another 72 h. Then, each well was added with 10 μL of MTT solution (5 mg/mL) and incubated for another 4 h. After that, each well was added with 100 μL of 10% SDS-0.1% NH4Cl (10% SDS purchased from Beijing Mengyimei Biotechnology Co., Ltd.) solution, and incubated at 37° C. for 10 h in the dark. Then, the absorbance OD was measured at 570 nm using a microplate reader at a reference wavelength of 650 nm. Cell proliferation inhibition was calculated according to the following formula: % inhibition=(ODcontrol−ODtreat)(ODcontrol−ODblank)×100. […] Each group was performed at least three times in parallel.

[2] = system: human neuroblastoma cell line (SH-SY5Y); test: MTT assay, tumor cell proliferation inhibition, SH-SY5Y; type: cell-based; conditions: SH-SY5Y, 72 h, read-out: Tumor inhibition rate (IC50)
Experimental: as §1, §2

[3] = system: human lung cancer cell line (A549); test: MTT assay, tumor cell proliferation inhibition, A549; type: cell-based; conditions: for IC50: A549, MTT, 72 h, read-out: Tumor inhibition rate (IC50)
Experimental: as §1, §2

[4] = system: human breast cancer cell line (MCF-7); test: MTT assay, tumor cell proliferation inhibition, MCF-7; type: cell-based; conditions: MCF-7, MTT, 72 h, read-out: Tumor inhibition rate (IC50)
Experimental: as §1, §2

[5] = system: human prostate cancer cell line (DU145); test: MTT assay, tumor cell proliferation inhibition, DU145; type: cell-based; conditions: for IC50: DU145, MTT, 72 h, read-out: Tumor inhibition rate (IC50)
Experimental: as §1, §2

DU145 cancer cells = test: Nude mice bearing DU145 cancer cells; type: in vivo; conditions: for tumor growth: FIG. 3
Experimental: (§3) In the present invention, the antitumor activity was evaluated by intraperitoneal injection to nude mice bearing different tumors, for compounds 3 (N-(4-((4-nitrophenyl)methoxy)phenyl)-6,7-(benzo-9-crown-3)-4-quinazolinamine) and 23 (compounds No. are shown in Table 1) (N-(3-((4-trifluoromethylphenyl)methoxy)phenyl)-6,7-(benzo-12-crown-4)-4-quinazolinamine) of formula (I).
Firstly, a tumor-bearing nude mouse model was established. 0.2-1 mL of cell suspension was inoculated subcutaneously into the left lower limb of nude mice, and the drug was administered when the tumor volume reached about 100 mm^3. Then, grouping and administration were performed; the nude mice (5 mice in each group) were randomly divided into several groups, such as ultra-pure water control group (blank), positive drug control group, and different dosage treatment groups. […] The nude mice were weighted every other day during the administration. Tumor volumes were measured and calculated. Then tumor growth curve, tumor inhibition curve (see FIGS. 1 and 3) and weight change curve (see FIGS. 2 and 4) were drawn. […]. Among those, docetaxel suffers from high cumulative neurotoxic toxicity and drug resistance although it has the best effect. Comparing to docetaxel, compound 23 has a much lower toxicity and drug resistance, and thus has a great development prospect. […]

[6] = system: tumor cell strains HepG2, A549, MCF-7, DU145 and SH-SY5Y; test: MTT assay, summary over the five tumor cell lines; type: cell-based, human; conditions: HepG2, A549, MCF-7, DU145, SH-SY5Y
Experimental: as §1
The cells in logarithmic growth phase were treated to prepare a single cell suspension, with the cell density adjusted, which was seeded in a 96-well cell culture plate. About 2×10^3 cells were contained in 100 μL per well, and cultured in a cell incubator at 37° C., 5% CO2, and saturated humidity for 24 h. The used medium was aspirated and abandoned, and then 100 μL of the target compound in different concentrations (0.1 μM-100 μM) were added for drug treatment. Five duplicate wells were prepared for each concentration. The background blank well, negative control well and positive control well were also prepared. All the wells were placed in a cell culture incubator at 37° C., 5% CO2, saturated humidity for another 72 h. Then, each well was added with 10 μL of MTT solution (5 mg/mL) and incubated for another 4 h. After that, each well was added with 100 μL of 10% SDS-0.1% NH4Cl (10% SDS purchased from Beijing Mengyimei Biotechnology Co., Ltd.) solution, and incubated at 37° C. for 10 h in the dark. Then, the absorbance OD was measured at 570 nm using a microplate reader at a reference wavelength of 650 nm. Cell proliferation inhibition was calculated according to the following formula: % inhibition=(ODcontrol−ODtreat)(ODcontrol−ODblank)×100. IC50 value, i.e., 50% proliferation inhibition concentration, was calculated by SPSS 16.0 software. Each group was performed at least three times in parallel.
The inhibitory activities of 35 target compounds against tumor cell strains HepG2, A549, MCF-7, DU145 and SH-SY5Y were tested by MTT assay (Table 1). Some compounds with optimal antitumor activity were selected.

HepG2 cancer cells = test: Nude mice bearing HepG2 cancer cells; conditions: for weight loss of nude mice (FIG. 6): 40 mg/Kg, single agent; for tumor growth (tumor volume, FIG. 5): nude mice bearing HepG2, single agent
Experimental: Firstly, a tumor-bearing nude mouse model was established. […] Then, grouping and administration were performed; the nude mice (5 mice in each group) were randomly divided into several groups, such as ultra-pure water control group (blank), positive drug control group, and different dosage treatment groups. The nude mice in each group were administered continuously for 40 days. The nude mice were weighted every other day during the administration. Tumor volumes were measured and calculated.

A549 cancer cells = test: Nude mice bearing A549 cancer cells; type: in vivo; conditions: mouse, in vivo
Experimental: as §3
Firstly, a tumor-bearing nude mouse model was established. 0.2-1 mL of cell suspension was inoculated subcutaneously into the left lower limb of nude mice, and the drug was administered when the tumor volume reached about 100 mm^3. Then, grouping and administration were performed; the nude mice (5 mice in each group) were randomly divided into several groups, such as ultra-pure water control group (blank), positive drug control group, and different dosage treatment groups. The nude mice in each group were administered continuously for 40 days. The nude mice were weighted every other day during the administration. Tumor volumes were measured and calculated. Then tumor growth curve, tumor inhibition curve (see FIGS. 1 and 3) and weight change curve (see FIGS. 2 and 4) were drawn. […]. Among those, docetaxel suffers from high cumulative neurotoxic toxicity and drug resistance although it has the best effect. Comparing to docetaxel, compound 23 has a much lower toxicity and drug resistance, and thus has a great development prospect. […]

Which results are given for `FC(F)(F)c1ccc(COc2cccc(Nc3ncnc4cc5c(cc34)OCCOCCOCCO5)c2)cc1` [Compound 23, N-(3-((4-trifluoromethylphenyl)methoxy)phenyl)-6,7-(benzo-12-crown-4)-4-quinazolinamine]?
IC50 ([1]; Homo sapiens): 34 µM; IC50 ([2]; Homo sapiens): 20 µM; IC50 ([3]; Homo sapiens): 24.9 µM; IC50 ([4]; Homo sapiens, MCF7): 17.6 µM; IC50 ([5]; Homo sapiens, DU-145): 2.76 µM; inhibitory effect on DU145 (in words) ([5]; MTT, summary of Table 1): strong specific inhibitory effect; tumor growth (DU145 cancer cells; 80 mg/Kg): no longer grown almost; body weight compared with blank control (DU145 cancer cells; 80 mg/Kg, after treating for 50 days): even heavier than that of the blank control group; tumor growth (DU145 cancer cells; 160 mg/Kg): no longer grown almost; also recorded: completely inhibited; toxicity (DU145 cancer cells; 160 mg/kg, FIG. 4): no significant toxicity was observed; toxicity / body weight of nude mice (FIG. 4) (DU145 cancer cells; nude mice bearing DU145): very low; antitumor effect (tumor volume, FIG. 3) (DU145 cancer cells; nude mice bearing DU145, intraperitoneal injection, three doses): significant antitumor effect; also recorded: high inhibitory effect

Which results are given for `O=[N+]([O-])c1ccc(COc2cccc(Nc3ncnc4cc5c(cc34)OCCOCCOCCOCCO5)c2)cc1` [Compound 31, N-(3-((4-nitrophenyl)methoxy)phenyl)-6,7-(benzo-15-crown-5)-4-quinazolinamine]?
IC50 ([1]; Homo sapiens): 9.82 µM; IC50 ([2]; Homo sapiens): 8.42 µM; IC50 ([3]; Homo sapiens): 19.8 µM; IC50 ([4]; Homo sapiens, MCF7): 6.41 µM; IC50 ([5]; Homo sapiens, DU-145): 13.8 µM; inhibitory effect on proliferation of the five tumor cells (in words) [6]: good inhibitory effect on proliferation of at least three of the five tumor cells; melting point: 136 to 137 °C

Which “weight loss of nude mice (FIG. 6)” value (HepG2 cancer cells) does the source give for `CNC(=O)c1cc(Oc2ccc(NC(=O)Nc3ccc(Cl)c(C(F)(F)F)c3)cc2)ccn1` [sorafenib] here?
The value was “weight loss of nude mice is relatively slow”.

And the “tumor growth (tumor volume, FIG. 5)” value (HepG2 cancer cells)?
Its value is “can slow down the tumor growth with increasing drug dose”.

Which IC50 ([1]; Homo sapiens) does the source give for `N#Cc1cc(Nc2ncnc3cc4c(cc23)OCCOCCO4)ccc1OCc1cccc(F)c1` [Compound 36, 2-(3-Fluoro-benzyloxy)-5-(7,8,10,11-tetrahydro-6,9,12-trioxa-1,3-diaza-cyclonona[b]naphthalen-4-ylamino)-benzonitrile] here?
The IC50 was > 100 µM.

And the IC50 ([2]; Homo sapiens)?
The IC50 was > 100 µM.

And the IC50 ([3]; Homo sapiens)?
The IC50 was 3.52 µM.

What about the IC50 ([4]; Homo sapiens, MCF7) of the same molecule?
The IC50 was > 100 µM.

And the IC50 ([5]; Homo sapiens, DU-145)?
Its IC50 is 0.31 µM.

What about the melting point of the same molecule?
The melting point was 220 to 222 °C.

For `CNC(=O)c1cc(Oc2ccc(NC(=O)Nc3ccc(Cl)c(C(F)(F)F)c3)c(F)c2)ccn1` [regorafenib], which “weight loss of nude mice (FIG. 6)” value (HepG2 cancer cells) is on record?
The value was “weight loss of nude mice is similar”.

And the “tumor growth (tumor volume, FIG. 5)” value (HepG2 cancer cells)?
The value was “can slow down the tumor growth with increasing drug dose”.

For `COc1cc2ncnc(Nc3ccc(F)c(Cl)c3)c2cc1OCCCN1CCOCC1` [Gefitinib, reference compound], which “toxicity / body weight of nude mice (FIG. 2)” value (A549 cancer cells) is on record?
Its value is “increased”.

Which IC50 [1] does the source give for `FC(F)(F)c1ccc(COc2cccc(Nc3ncnc4cc5c(cc34)OCCOCCOCCOCCO5)c2)cc1` [Compound 34, N-(3-((4-trifluoromethylphenyl)methoxy)phenyl)-6,7-(benzo-15-crown-5)-4-quinazolinamine] here?
The IC50 was 5.7 µM.

What about the IC50 [2] of the same molecule?
Its IC50 is 8.56 µM.

What about the IC50 [3] of the same molecule?
Its IC50 is 8.52 µM.

What about the IC50 [4] of the same molecule?
Its IC50 is 8.48 µM.

What about the IC50 [5] of the same molecule?
The IC50 was 26.9 µM.

What about the “inhibitory effect on proliferation of the five tumor cells (in words)” value [6] of the same molecule?
The value was “good inhibitory effect on proliferation of at least three of the five tumor cells”.

Which IC50 ([1]; Homo sapiens) does the source give for `O=[N+]([O-])c1ccc(COc2ccccc2Nc2ncnc3cc4c(cc23)OCCOCCO4)cc1` [Compound 1, N-(2-((4-nitrophenyl)methoxy)phenyl)-6,7-(benzo-9-crown-3)-4-quinazolinamine] here?
Its IC50 is 50.2 µM.

What about the IC50 ([2]; Homo sapiens) of the same molecule?
The IC50 was > 100 µM.

What about the IC50 ([3]; Homo sapiens) of the same molecule?
The IC50 was 28.4 µM.

What about the IC50 ([4]; Homo sapiens, MCF7) of the same molecule?
Its IC50 is > 100 µM.

What about the IC50 ([5]; Homo sapiens, DU-145) of the same molecule?
The IC50 was 85.6 µM.

And the melting point?
Its melting point is 192 to 193 °C.

Which IC50 [1] does the source give for `c1ccc(COc2ccc(Nc3ncnc4cc5c(cc34)OCCOCCOCCOCCO5)cc2)cc1` [Compound 29, N-(4-((phenyl)methoxy)phenyl)-6,7-(benzo-15-crown-5)-4-quinazolinamine] here?
Its IC50 is 11.9 µM.

And the IC50 [2]?
The IC50 was 5.25 µM.

And the IC50 [3]?
Its IC50 is 29.5 µM.

What about the IC50 [4] of the same molecule?
Its IC50 is 12 µM.

And the IC50 [5]?
The IC50 was 8.8 µM.

And the “inhibitory effect on proliferation of the five tumor cells (in words)” value [6]?
The value was “good inhibitory effect on proliferation of at least three of the five tumor cells”.

Which results are given for `FC(F)(F)c1ccc(COc2ccccc2Nc2ncnc3cc4c(cc23)OCCOCCOCCO4)cc1` [Compound 22, N-(2-((4-trifluoromethylphenyl)methoxy)phenyl)-6,7-(benzo-12-crown-4)-4-quinazolinamine]?
IC50 [1]: > 100 µM; IC50 [2]: > 100 µM; IC50 [3]: > 100 µM; IC50 [4]: > 100 µM; IC50 [5]: > 100 µM

For `O=[N+]([O-])c1ccc(COc2cccc(Nc3ncnc4cc5c(cc34)OCCOCCOCCO5)c2)cc1` [Compound 19, N-(3-((4-nitrophenyl)methoxy)phenyl)-6,7-(benzo-12-crown-4)-4-quinazolinamine], which IC50 [1] is on record?
The IC50 was > 100 µM.

What about the IC50 [2] of the same molecule?
Its IC50 is > 100 µM.

What about the IC50 [3] of the same molecule?
Its IC50 is > 100 µM.

What about the IC50 [4] of the same molecule?
The IC50 was > 100 µM.

And the IC50 [5]?
The IC50 was > 100 µM.

Which IC50 [1] does the source give for `Fc1ccc(COc2ccccc2Nc2ncnc3cc4c(cc23)OCCOCCO4)cc1Cl` [Compound 13, N-(2-((3-chloro,4-fluorophenyl)methoxy)phenyl)-6,7-(benzo-9-crown-3)-4-quinazolinamine] here?
Its IC50 is > 100 µM.

And the IC50 [2]?
The IC50 was > 100 µM.

And the IC50 [3]?
Its IC50 is 9.43 µM.

What about the “inhibitory activity on A549 (in words)” value ([3]; MTT, summary of Table 1) of the same molecule?
The value was “strong specific inhibitory activity”.

What about the IC50 [4] of the same molecule?
Its IC50 is > 100 µM.

What about the IC50 [5] of the same molecule?
The IC50 was 88.6 µM.
